From ChEMBL document CHEMBL1649320, “Development of daptomycin nonsusceptibility with heterogeneous vancomycin-intermediate resistance and oxacillin susceptibility in methicillin-resistant Staphylococcus aureus during high-dose daptomycin treatment” (2010)
Converted amounts (≈) assume the structure as drawn.

What was measured:
Type in all cases: functional
[1] = test system: Staphylococcus aureus; assay: Antimicrobial activity against methicillin-resistant Staphylococcus aureus CGK7 by Etest method
[2] = test system: Staphylococcus aureus; assay: Antimicrobial activity against methicillin-resistant Staphylococcus aureus CGK3 by Etest method
[3] = test system: Staphylococcus aureus; assay: Antimicrobial activity against methicillin-resistant Staphylococcus aureus CGK6 by Etest method
[4] = test system: Staphylococcus aureus; assay: Antimicrobial activity against methicillin-resistant Staphylococcus aureus CGK8 by Etest method
[5] = test system: Staphylococcus aureus; assay: Antimicrobial activity against methicillin-resistant Staphylococcus aureus CGK2 by Etest method
[6] = test system: Staphylococcus aureus; assay: Antimicrobial activity against methicillin-resistant Staphylococcus aureus CGK1 by Etest method
[7] = test system: Staphylococcus aureus; assay: Antimicrobial activity against methicillin-resistant Staphylococcus aureus CGK5 by Etest method
[8] = test system: Staphylococcus aureus; assay: Antimicrobial activity against methicillin-resistant Staphylococcus aureus CGK4 by Etest method

Row | Compound | MIC [1] | MIC [2] | MIC [3] | MIC [4] | MIC [5] | MIC [6] | MIC [7] | MIC [8]
1 | CC(=O)N[C@@H]1[C@H](Oc2c3cc4cc2Oc2ccc(cc2Cl)[C@@H](O[C@@H]2O[C@@H](CO)[C@@H](O)[C@H](O)[C@@H]2NC(C)=O)[C@@H]2NC(=O)[C@H](NC(=O)[C@@H]4NC(=O)[C@H]4NC(=O)[C@@H](Cc5ccc(c(Cl)c5)O3)NC(=O)[C@H](N)c3ccc(O)c(c3)Oc3cc(O)cc4c3)c3ccc(O)c(c3)-c3c(O[C@H]4O[C@H](CO)[C@@H](O)[C@@H](O)[C@@H]4O)cc(O)cc3[C@@H](C(=O)O)NC2=O)O[C@@H](CO)[C@@H](O)[C@@H]1O | 3 µg/mL (≈ 1.7 µM) | 1.5 µg/mL (≈ 0.849 µM) | 2 µg/mL (≈ 1.13 µM) | 2 µg/mL (≈ 1.13 µM) | 1.5 µg/mL (≈ 0.849 µM) | 1 µg/mL (≈ 0.566 µM) | 2 µg/mL (≈ 1.13 µM) | 1 µg/mL (≈ 0.566 µM)
2 | CCCCCCCCCC(=O)N[C@@H](Cc1c[nH]c2ccccc12)C(=O)N[C@H](CC(N)=O)C(=O)N[C@@H](CC(=O)O)C(=O)N[C@@H]1C(=O)NCC(=O)N[C@@H](CCCN)C(=O)N[C@@H](CC(=O)O)C(=O)N[C@H](C)C(=O)N[C@@H](CC(=O)O)C(=O)NCC(=O)N[C@H](CO)C(=O)N[C@@H]([C@H](C)CC(=O)O)C(=O)N[C@@H](CC(=O)c2ccccc2N)C(=O)O[C@@H]1C | 4 µg/mL (≈ 2.47 µM) | 0.75 µg/mL (≈ 0.463 µM) | 4 µg/mL (≈ 2.47 µM) | 4 µg/mL (≈ 2.47 µM) | 0.75 µg/mL (≈ 0.463 µM) | 0.5 µg/mL (≈ 0.309 µM) | 0.75 µg/mL (≈ 0.463 µM) | 0.38 µg/mL (≈ 0.234 µM)
3 | CC(=O)NC[C@H]1CN(c2ccc(N3CCOCC3)c(F)c2)C(=O)O1 [LINEZOLID] |  |  | 1 µg/mL (≈ 2.96 µM) | 1.5 µg/mL (≈ 4.45 µM) |  |  |  | 
4 | Cc1onc(-c2ccccc2)c1C(=O)N[C@@H]1C(=O)N2[C@@H]1SC(C)(C)[C@@H]2C(=O)O [OXACILLIN] | 3 µg/mL (≈ 7.47 µM) | > 256 µg/mL | 1.5 µg/mL (≈ 3.74 µM) | 1 µg/mL (≈ 2.49 µM) | > 256 µg/mL | 32 µg/mL (≈ 79.7 µM) | > 256 µg/mL | 16 µg/mL (≈ 39.9 µM)
5 | CN[C@H](CC(C)C)C(=O)N[C@H]1C(=O)N[C@@H](CC(N)=O)C(=O)N[C@H]2C(=O)N[C@H]3C(=O)N[C@H](C(=O)N[C@H](C(=O)O)c4cc(O)cc(O)c4-c4cc3ccc4O)[C@H](O)c3ccc(c(Cl)c3)Oc3cc2cc(c3O[C@@H]2O[C@H](CO)[C@@H](O)[C@H](O)[C@H]2O[C@H]2C[C@](C)(N)[C@H](O)[C@H](C)O2)Oc2ccc(cc2Cl)[C@H]1O [VANCOMYCIN] | 3 µg/mL (≈ 2.07 µM) |  |  |  | 1.5 µg/mL (≈ 1.04 µM) | 1.5 µg/mL (≈ 1.04 µM) |  | 1.5 µg/mL (≈ 1.04 µM)
